What was measured:
[1] = [14C]-QBS10072S distribution by quantitative whole-body autoradiography in mice with intracranial LN229 tumors; type: in vivo, mouse; details: 5 mg/kg IV
Method: Athymic mice with intracranial implanted LN229 cells received a single IV dose of 5 mg/kg and 200 μCi/kg [14C]-QBS10072S into the tail vein using the formulation described above. Animals (one per time point) were sacrificed one, eight, and 24 hours post-dose, and frozen in a hexane/solid carbon dioxide bath for at least 10 minutes. The carcasses were processed as described for quantitative whole-body autoradiography. Briefly, sagittal sections (~ 40 μm thick) were cut using a microtome, mounted, and exposed to a [14C]-sensitive phosphor imaging plate for four days. The images were scanned and quantitated by image densitometry using MCID image analysis software. The concentrations of radioactivity were expressed as the μg equivalents of test article per gram sample (μg equiv/g). The upper and lower limits of quantification were 550 and 0.008 μg equiv/g, respectively (QPS, Newark, DE).

hLAT1 = target: T1, hLAT1 (Homo sapiens, UniProt Q01650); assay: Substrate transport inhibition, [3H]-gabapentin uptake in LLC-PK1 cells expressing hLAT1; type: cell-based
T1 construct: host or cells: LLC-PK1 (tetracycline-inducible, Invitrogen Gateway pT-REx System)
T1 sequence (Q01650 whole entry): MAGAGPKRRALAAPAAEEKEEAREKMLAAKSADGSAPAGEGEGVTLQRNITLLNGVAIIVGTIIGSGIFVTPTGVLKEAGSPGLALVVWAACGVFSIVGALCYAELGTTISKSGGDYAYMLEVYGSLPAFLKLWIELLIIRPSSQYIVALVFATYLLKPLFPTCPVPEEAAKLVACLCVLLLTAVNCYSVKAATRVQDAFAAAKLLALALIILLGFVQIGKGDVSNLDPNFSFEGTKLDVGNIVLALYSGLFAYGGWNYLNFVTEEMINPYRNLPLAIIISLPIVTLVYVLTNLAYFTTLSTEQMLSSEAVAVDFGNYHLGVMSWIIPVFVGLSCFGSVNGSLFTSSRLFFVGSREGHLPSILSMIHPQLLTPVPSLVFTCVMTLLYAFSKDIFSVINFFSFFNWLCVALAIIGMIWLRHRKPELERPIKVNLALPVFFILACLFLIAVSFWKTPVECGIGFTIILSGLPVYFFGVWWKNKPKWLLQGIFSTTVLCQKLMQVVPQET
T1 sequence (P08195 102-630 partner): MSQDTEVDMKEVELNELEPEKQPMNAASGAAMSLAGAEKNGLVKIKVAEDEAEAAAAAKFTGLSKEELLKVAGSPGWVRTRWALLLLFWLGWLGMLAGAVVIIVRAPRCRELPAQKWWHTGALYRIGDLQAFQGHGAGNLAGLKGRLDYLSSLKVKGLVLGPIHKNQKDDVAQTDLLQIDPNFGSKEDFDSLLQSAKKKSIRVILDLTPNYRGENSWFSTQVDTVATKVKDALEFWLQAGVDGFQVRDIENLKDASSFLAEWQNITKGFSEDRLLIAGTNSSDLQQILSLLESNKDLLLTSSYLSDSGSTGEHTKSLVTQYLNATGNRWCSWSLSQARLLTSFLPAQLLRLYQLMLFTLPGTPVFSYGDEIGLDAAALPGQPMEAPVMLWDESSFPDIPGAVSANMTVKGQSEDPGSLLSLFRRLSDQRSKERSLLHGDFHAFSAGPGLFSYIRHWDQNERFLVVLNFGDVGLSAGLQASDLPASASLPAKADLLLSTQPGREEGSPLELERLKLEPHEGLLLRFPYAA
Method: Substrate transport inhibition studies were conducted with LLC-PK1 cells inducibly expressing either hLAT1 or hLAT2. Cells were plated in growth media with 1 μg/mL doxycycline at 30,000 cells/well in 96-well plates. Sixteen hours after plating, cells were treated with butyrate at a final concentration of 5 mM. The following day, cells were washed with PBS and incubated in the presence or absence of various concentrations of QBS10072S with 30,000 cpm/well of either [3H]-gabapentin (LAT1) or [3H]-leucine (LAT2) in PBS for 15 minutes at room temperature. The non-specific cell-bound activity was determined by the addition of 5 mM unlabeled gabapentin (LAT1) or leucine (LAT2). Unincorporated radioactivity was removed, and cells were washed three times with ice-cold PBS. Cells were lysed by adding scintillation fluid to each well, and cell-associated radioactivity was determined via scintillation counting using a multichannel 96-well plate reader (MicroBeta Trilux, Perkin Elmer, Waltham, MA). Data were expressed as the percent of specific radioactivity uptake in wells with no compound added. LC50s were determined by non-linear curve-fitting using GraphPad Prism (San Diego, CA).

U87 cells = assay: WST1 cell viability assay, U87; type: cell-based; details: Homo sapiens, U-87 MG, read-out: LC50 (μM ± SD)
Method: In vitro activities of QBS10072S and temozolomide (TMZ) in U87 and U87-MGMT cells were assessed using the WST1 cell viability assay in 96-well plates in which 500/well of cells were plated in sextuplets for each condition. To avoid cell loss, the following washing and medium removing procedures were all done using a P200 pipet without vacuum aspiration. For QBS10072S treatment, cells were washed with PBS the next day and incubated with 50 μL of various concentrations of QBS10072S in PBS for 1 hour at 37°C. After incubation, 150 μL of growth medium was added to each well. The medium was subsequently changed every two days until day 7. For TMZ treatment, cells were treated with 100 μL of various concentrations of TMZ in a growth medium for 2 days. After incubation, cells were put back in a normal growth medium and continued culturing for five days. In the end, 10 μL of WST1 reagent was added to each well and incubated at 37°C for 4h before subjecting to plate reading at 450 nm and 690nm using an EnSpire multimode plate reader (PerkinElmer). Background (OD690nm) was subtracted and data were normalized to the control. LC50s were determined by non-linear regression using GraphPad Prism (GraphPad Software Inc., San Diego, California)

U251 cells = assay: Cell viability assay (CellTiter-Glo), U251; type: cell-based; details: Homo sapiens, U-251; Cell Line: U251; read-out: LC50 (μM ± SD)
Method: In vitro activity of QBS10072S was assessed using a modified clonogenic cell viability assay in 96-well clear-bottom plates. For the LLC-PK1 inducible LAT1-expressing cell line, 1000 cells/well were plated and cells were treated with either butyrate alone (non-induced) or with both butyrate and doxycycline (induced) as described above. For GBM cell lines, 2000 cells/well were plated. On day 2 (GBM) or day 3 (LLC-PK1) after original plating, cells were washed twice with PBS and incubated with 50 μL of various concentrations of QBS10072S in PBS in at least quadruplicate. After 30 minutes at 37°C, 200 μL of growth medium was added to each well. Clonal populations were allowed to grow until the control wells (mock treatment) were near confluence (7 to 10 days). At this point, 170 μL media were removed and 60 μL CellTiter-Glo® (Promega, Madison, WI) were added to each well. Plates were placed on an orbital shaker for three minutes to lyse the cells and then incubated for an additional 10 minutes at RT to stabilize the luminescent signal. Luminescence was recorded using an EnSpire® Multimode Plate Reader (Perkin Elmer). Background (luminescence from wells incubated with 100 μM melphalan or lomustine) was subtracted and data were normalized to the control. EC50s were determined by non-linear regression using GraphPad Prism.

Cc1ccc(N(CCCl)CCCl)cc1C[C@H](N)CC(=O)O [QBS10072S, (+)-(3S)-amino-4-[5-[bis(2-chloroethyl)amino]-2-methyl-phenyl]butanoic acid]
level in brain tumor as % of blood levels ([1]; 1 hour post-dose): 89% | level in brain tumor as % of blood levels ([1]; 8 hours post-dose): 73% | level in brain tumor as % of blood levels ([1]; 24 hours post-dose): 37% | IC50 (hLAT1; [3H]-gabapentin, LLC-PK1 LAT1-expressing cells, 15 minutes at room temperature, read-out: IC50, inhibition of substrate transport (LAT1)): 21 µM | selectivity LAT1 vs. LAT2 in transport assays (hLAT1; ratio of IC50s LAT2/LAT1): 50 fold | CC50 (U87 cells): 14.7 ± 5.3 µM | CC50 (U251 cells): 12 ± 2 µM

Source: article PMC8482806, “A Novel Blood-Brain Barrier-Permeable Chemotherapeutic Agent for the Treatment of Glioblastoma” (Cureus, 2021)
